# Data published in patent US20240285497A1, “METHOD FOR EVALUATING AN ABILITY OF A TEST SAMPLE TO TRIGGER A FOREIGN BODY REACTION IN THE SKIN, A METHOD FOR SCREENING A SUBSTANCE HAVING AN ABILITY TO INHIBIT A FOREIGN BODY REACTION IN THE SKIN, AND AN AGENT FOR INHIBITING A FOREIGN BODY REACTION IN THE SKIN” (priority 2021, published 2024).
# Marks after values point to notes of the source that are not given here.
# Key:
# [1] = system: xenobiotic responsive element (XRE); experiment: Evaluation of ability to trigger a foreign body reaction using XRE-NLuc::HaCaT reporter cells (NLuc luminescence per viable cell); format: cell-based, human; conditions: XRE-NLuc::HaCaT cells; for EC50: reporter protein expression; for Present Experiment Maximum Effective concentration Max. Induction: concentration at which reporter expression was maximized
# Protocol: First, XRE-NLuc::HaCaT cells were suspended in a DMEM medium at the density of 1×10^5 cell/mL, and 100 μL of the thus obtained suspension was added to each well of white 96 well plates (Thermo Fisher Scientific, MA, U.S.A.; Catalogue No.: 136102) so that the number of the cells in each well was 10,000 cells/well. In accordance with a conventional method, the cells were incubated at 37° C., 5% CO2 for 24 hours. Thereafter, the DMEM medium was removed, and 100 μL of a new DMEM medium containing FICZ (6-Formylindolo[3,2-b]carbazole; CAS RN: 172922-91-7) as a test sample at a predetermined concentration was added, followed by further incubation for 24 hours at 37° C., 5% CO2. FICZ is known as a substance that triggers a foreign body reaction in which XRE is involved. Meanwhile, negative controls were prepared by adding 100 μL of a DMEM medium containing no FICZ instead of the DMEM medium containing FICZ, which were also incubated for 24 hours at 37° C., 5% CO2.
# (§1) After the above-described incubation for 24 hours, the number of cells in each well was counted by a colorimetric method based on the degradation of tetrazolium salt (WST-1) by mitochondrial dehydrogenase in viable cells. Specifically, 3 μL of Premix WST-1 (Product Name “Premix WST-1 Cell Proliferation Assay System”; Takara Bio Inc., Shiga, Japan; Catalogue No.: MK400) was added to each well of 96 well plates, and then the cells were cultured for 1 hour at 37° C., 5% CO2. Thereafter, 93 μL of cell culture supernatant was removed from each well to measure the absorbance of the supernatant in each well. The removed supernatants were transferred to transparent 96 well plates, and then the absorbance at 450 nm (A450) and, as a reference wavelength, the absorbance at 670 nm (A670) were measured using iMark microplate reader (Bio-Rad; Catalogue No.: 168-1130JA). A value (A450-A670) was obtained by subtracting the absorbance at 670 nm (A670) from the absorbance at 450 nm (A450). The relative viable cell count (%) was expressed as a relative value with the value (A450-A670) obtained for the negative control as 100%.
# Meanwhile, the expression level of the reporter protein was measured using samples left on the white 96-well plates after removing the supernatants for the viable cell count measurement. Briefly, 7 μL of Nano-Glo Luciferase Assay System (Promega; Catalogue No.: N110) was added to each well of the white 96-well plate. After 3 mins, the luminescence intensity obtained from the reporter protein produced by XRE-NLuc::HaCaT cells in each well was measured using GloMax Navigator Microplate Luminometer (Promega; Catalogue No.: GM2000). The obtained luminescence intensities were divided by the relative viable cell counts obtained by the above-described colorimetric method to obtain the expression level of the reporter protein (luminescence intensity) per unit number of viable cells.
# In FIG. 3, the luminescence intensity per unit number of viable cells obtained from XRE-NLuc::HaCaT cells incubated with each of the DMEM medium containing FICZ at different concentrations was shown as a relative value, with the luminescence intensity per unit number of viable cells obtained for the negative control set to 1. […] In the figure, “*” and “**” indicate statistically significant differences (p<0.05 and p<0.01, respectively) from the negative control (“FICZ Concentration 0 nM” in FIG. 3).
# (§2) The ability of each test sample to trigger a foreign body reaction was evaluated using XRE-NLuc::HaCaT cells in the same manner as in Experiment 1-2, except that I3C (Indole-3-carbinol, CAS RN: 700-06-1), ITE (2-(1′H-indole-3′-carbonyl)-thiazole-4-carboxylic acid methyl ester, CAS RN: 448906-42-1), and Indirubin (CAS RN: 479-41-4) were used instead of FICZ as test samples and the amount of each test sample added to the DMEM medium was appropriately changed.
# XRE-NLuc::HaCaT cells = experiment: in vitro; conditions: read-out: LC50; XRE-NLuc::HaCaT cells, median lethal concentration
# Protocol: as §1, §2
# [2] = system: human liver cancer-derived cell line HepG2 cells; conditions: cited from earlier work
# in vitro = conditions: human
# Protocol: as §1, §2
# [3] = system: xenobiotic responsive element (XRE); experiment: Screening: inhibition of FICZ-triggered reporter protein expression in XRE-NLuc::HaCaT cells; format: cell-based, human; conditions: FICZ 5,000 nM, 24 hours
# Protocol: First, in the same manner as in Experiment 1-2, XRE-NLuc::HaCaT cells were suspended in a DMEM medium at the density of 1×10^5 cell/mL, and 100 μL of the thus obtained suspension was added to each well of white 96-well plates (Thermo Fisher Scientific, MA, U.S.A.; Catalogue No.: 136102) so that a number of the cells in each well was 10,000 cells/well. In accordance with the conventional method, the cells were incubated for 24 hours at 37° C. and 5% CO2. Thereafter, the DMEM medium was removed, and 100 μL of a new DMEM medium containing […] of FICZ, which was confirmed to activate the expression of the reporter protein in Experiment 1-2, and a candidate substance at a predetermined concentration. Meanwhile, reference samples were also prepared by adding 100 μL of a DMEM medium containing 5,000 nM of FICZ but not containing candidate substances. In this experiment, 5-hydroxy-4-phenyl-2(5H)butenolide (hereinafter also referred to as “Fraglide-1” or “FG1”) and, as a positive control, cinnamaldehyde, which is known to have an effect of inhibiting a foreign body reaction in which a xenobiotic responsive element (XRE) is involved, were used as test substances. After incubation for 24 hours at 37° C. and 5% CO2, the expression level of the reporter protein (luminescence intensity) and the viable cell count were measured in accordance with the method described in Experiment 1-2, and the expression of the reporter protein per unit number of viable cells was obtained. The inhibition rate (Inhibition (%)) of the expression of the reporter protein exerted by each candidate substance was calculated in accordance with the following formula.
# In the above formula, (Reporter Expression)FICZ indicates the expression of the reporter protein per unit number of viable cells obtained from the reference samples: i.e., the cells incubated in the medium containing 5,000 nM of FICZ but not containing candidate substances. Meanwhile, (Reporter Expression)FICZ+TEST SAMPLE indicates the expression of the reporter protein per unit number of viable cells obtained from the cells incubated in the medium containing 5,000 nM of FICZ and a candidate substance. The results shown in FIG. 6 were the mean obtained from three independent experiments. The error bars represent the standard error (SE).
# [4] = system: TIMP-1 (Tissue Inhibitor of Matrix Metalloprotease-1) mRNA; experiment: TIMP-1 mRNA expression in HaCaT cells, quantitative PCR; format: cell-based, human; conditions: Fraglide-1 1 μM, 10 μM, 100 μM; retinoic acid / nicotinic acid amide at predetermined concentrations; 24 hours
# Protocol: Specifically, the mRNA expression of TIMP-1 in the HaCaT cells treated with Fraglide-1 was evaluated by performing quantitative PCR using cDNA obtained in Experiment 4-1. The procedure of quantitative PCR was the same as described in Experiment 4-1 except that the primers shown in below Table 5 were used.
# (§3) In FIG. 14, the results obtained for each sample were shown in relative values normalized by setting the expression level of TIMP-1 in the HaCaT cells incubated for 24 hours in DMEM medium not containing Fraglide-1 (i.e., the non-treated HaCaT cells) as 1. The results shown in FIG. 14 are the mean of values obtained from three independent experiments, and the error bars represent standard deviation (SD).
# On the other hand, as comparison, the similar evaluation was performed for retinoic acid and nicotinamide, which are known as active ingredients of anti-wrinkle agents, using cDNA obtained in Experiment 4-2. The procedure for quantitative PCR was the same as already described in Experiment 3-1, except that the primers shown in Table 5 were used.
# as §3, with “15,” for “14,”, “either retinoic acid and nicotinic acid amide” for “Fraglide-1”, “15” for “14”
# [5] = system: matrix metalloprotease 9 (MMP9) mRNA; experiment: MMP9 mRNA expression in HaCaT cells contacted with test substance, quantitative PCR; format: cell-based, human; conditions: retinoic acid or nicotinamide at predetermined concentrations, 24 hours
# Protocol: (§4) In this experiment, the effect of Fraglide-1 on the expression of MMP9 in the level of mRNA was examined first. Specifically, HaCaT cells were treated with Fraglide-1 in the same manner as described in Experiment 3-1 except that HaCaT cells were incubated for 24 hours in the medium containing 0 μM, 1 μM, 10 μM, and 100 μM of Fraglide-1 instead of being incubated for 24 hours in the medium containing both FICZ and Fraglide-1. The total RNA was then extracted, cDNA was prepared, and the quantitative PCR was performed using the obtained cDNA. Herein, the procedure of the quantitative PCR was the same as described in Experiment 3-1 except that the primers shown in below Table 4 were used. In this experiment, the expression of MMP2 mRNA was also quantified in addition to MMP9 mRNA. MMP2 is known as a MMP which is not transcriptionally regulated by a xenobiotic responsive element (XRE).
# (§5) In FIG. 9 and FIG. 10, the results obtained for each sample were shown as a relative value, with the mRNA expression level of MMP9 or MMP2 in the HaCaT cells incubated for 24 hours in DMEM medium without FICZ (i.e., the non-treated HaCaT cells) set to 1. The results shown in FIG. 9 and FIG. 10 were the mean obtained from three independent experiments. The error bars represent the standard deviation (SD).
# Next, experiments were performed to inhibit MMP9 and MMP2 in HaCaT cells using retinoic acid (CAS RN: 302-79-4) and nicotinamide (CAS RN: 98-92-0), which are known to be substances having anti-wrinkle effect. Briefly, HaCaT cells were made in contact with retinoic acid and nicotinamide in the same manner as in Experiment 4-1 except that retinoic acid and nicotinamide were used instead of Fraglide-1. Then, the total RNA was extracted, cDNA was prepared, and the quantitative PCR was carried out using the obtained cDNA.
# as §5, with “FIG. 12” for “FIG. 9”, “FIG. 13,” for “FIG. 10,”, “medium containing neither retinoic acid nor nicotinamide” for “medium without FICZ”, “FIG. 13” for “FIG. 10”
# [6] = system: matrix metalloprotease 2 (MMP2) mRNA; experiment: MMP2 mRNA expression in HaCaT cells contacted with test substance, quantitative PCR; format: cell-based, human; conditions: retinoic acid or nicotinamide at predetermined concentrations, 24 hours
# Protocol: as §4, with “(XRE). […]” for “(XRE).”
# Next, experiments were performed to inhibit MMP9 and MMP2 in HaCaT cells using retinoic acid (CAS RN: 302-79-4) and nicotinamide (CAS RN: 98-92-0), which are known to be substances having anti-wrinkle effect. […] Then, the total RNA was extracted, cDNA was prepared, and the quantitative PCR was carried out using the obtained cDNA. […]
smiles,measurement,setting,value
"OCc1c[nH]c2ccccc12 [I3C, indole-3-carbinol]",EC50,[1],11 µM
same,Present Experiment Maximum Effective concentration Max. Induction,[1],350 µM
same,CC50,XRE-NLuc::HaCaT cells,> 700 µM
"COC(=O)c1csc(C(=O)c2c[nH]c3ccccc23)n1 [ITE, 2-(1′H-indole-3′-carbonyl)-thiazole-4-carboxylic acid methyl ester]",EC50,[1],1.3 µM
same,Present Experiment Maximum Effective concentration Max. Induction,[1],25 µM
same,CC50,XRE-NLuc::HaCaT cells,> 100 µM
same,Literature Value Maximum Effective concentration Max. Induction,[2],10** μM
"O=C1Nc2ccccc2/C1=C1/Nc2ccccc2C1=O [Indirubin, indirubin]",EC50,[1]; Homo sapiens,0.006 µM
same,Present Experiment Maximum Effective concentration Max. Induction,[1],0.25 µM
same,CC50 at 24 h,in vitro,> 40 µM
O=CC=Cc1ccccc1 [cinnamaldehyde],Inhibition (%) of expression of the reporter protein triggered by FICZ,[3]; 12.5 μM test substance,8%
same,Inhibition (%) of expression of the reporter protein triggered by FICZ,[3]; 25 μM test substance,14%
same,Inhibition (%) of expression of the reporter protein triggered by FICZ,[3]; 50 μM test substance,16%
NC(=O)c1cccnc1 [nicotinamide],expression level of TIMP-1 mRNA vs non-treated HaCaT cells (in words),[4],increase of the expression level of TIMP-1 was not observed
same,expression of MMP9 mRNA vs non-treated HaCaT cells,[5],decreased expression of MMP9 was also observed
same,expression of MMP2 mRNA vs non-treated HaCaT cells,[6],decreased
